# Experimental data as given in ChEMBL document CHEMBL1201862, “PubChem BioAssay data set” (2004).
# Active and inactive are the calls of the source.
# Key:
# [1] = target: Melanocortin receptor 4 (Homo sapiens, UniProt P32245); experiment: MC4R antagonist potency on cAMP, dose response, cell-based, TR-FRET, biased antagonists (AID 602298); type: functional;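 further: antagonist potency against agonist-stimulated cAMP production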
# [2] = nonselective inhibitors of cellular cAMP signaling, dose response, counter-screen for MC4R biased antagonist project, cell-based, TR-FRET cAMP detection (AID 602305); type: functional;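 further: U2OS cells stimulated with forskolin near its EC80 as the cAMP inducer; potency is for inhibition of forskolin-stimulated cAMP signaling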
# [3] = tested on: INS1; experiment: beta cell apoptosis inhibitors, cytokine rescue, dose response, luminescence, retest (AID 449756); type: functional, cell-based; settings: Rattus norvegicus;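 further: cell death triggered by IL-1 beta plus TNF-alpha plus IFN-gamma mixture; protective hits raise ATP signal compared with cytokine alone wells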
# [4] = target: Protein Wnt-3a (Mus musculus, UniProt P27467); experiment: Wnt3a-driven reporter signaling inhibition, dose response, selectivity assay for Gli-SUFU antagonist project, Wnt-LIGHT cells, luminescence (AID 651570); type: functional; settings: read-out: IC50_Mean;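 further: Wnt-LIGHT reporter cells stimulated with conditioned medium from Wnt3a-producing cells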
# Sequence of Protein Wnt-3a (P27467 whole entry): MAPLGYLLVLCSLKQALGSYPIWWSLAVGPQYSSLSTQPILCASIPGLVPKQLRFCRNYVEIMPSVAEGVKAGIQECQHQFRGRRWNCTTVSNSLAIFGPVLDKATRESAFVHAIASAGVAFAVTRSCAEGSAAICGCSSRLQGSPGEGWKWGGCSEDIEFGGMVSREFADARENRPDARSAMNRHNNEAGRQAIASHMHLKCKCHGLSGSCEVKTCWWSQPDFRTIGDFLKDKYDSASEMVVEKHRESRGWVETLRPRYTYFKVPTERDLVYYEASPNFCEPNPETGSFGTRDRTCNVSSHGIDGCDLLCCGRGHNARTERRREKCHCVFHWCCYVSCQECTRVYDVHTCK
# [5] = growth suppression of PTEN-null colon cells, dose response, cell-based, HCT116 PTEN knockout (AID 1047); type: functional;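 further: HCT116 colon tumor cells with PTEN knocked out; cells exposed to compound for 60 hours before readout; potency for loss of cell viability measured by luminescence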
# [6] = growth suppression of beta-catenin-knockout colon cells, dose response, cell-based, HCT116, human colon tumor (AID 1045); type: functional;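 further: HCT116 colon tumor cells with beta catenin knocked out; cells exposed to compound for 60 hours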
# [7] = target: T1, Ubiquitin-conjugating enzyme E2 N (Homo sapiens, UniProt P61088); type: functional;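 further: Dose-response confirmation in a TR-FRET assay detecting UBC13-driven polyubiquitin chain formation, inhibition measured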
# T1 sequence (P61088 whole entry): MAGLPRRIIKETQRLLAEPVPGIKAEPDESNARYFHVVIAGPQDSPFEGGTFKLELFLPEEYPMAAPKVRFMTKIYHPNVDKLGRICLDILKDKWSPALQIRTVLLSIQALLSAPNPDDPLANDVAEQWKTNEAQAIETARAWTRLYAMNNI
# [8] = target: Eukaryotic translation initiation factor 4E (Mus musculus, UniProt P63073); experiment: eIF4E–eIF4G protein interaction inhibitors, dose response, biochemical, TR-FRET (AID 855); type: functional;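 further: potency for disrupting eIF4E binding to eIF4GI seen as loss of FRET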
# Sequence of Eukaryotic translation initiation factor 4E (P63073 whole entry): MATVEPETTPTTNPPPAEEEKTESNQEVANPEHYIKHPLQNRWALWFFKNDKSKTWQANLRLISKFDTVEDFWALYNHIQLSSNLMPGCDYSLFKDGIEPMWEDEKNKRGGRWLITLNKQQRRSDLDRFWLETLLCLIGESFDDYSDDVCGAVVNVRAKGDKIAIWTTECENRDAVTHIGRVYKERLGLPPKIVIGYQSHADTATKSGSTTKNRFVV
# [9] = cytotoxicity in HEK-293T cells, dose response, cytotoxicity control for TCR NF-kB inhibitor project, luminescence, T-cell screen hits (AID 489026); type: functional, cell-based;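 further: cells exposed to compound about 14 hours before the viability readout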
# [10] = target: Heat shock protein HSP 90-alpha (Homo sapiens, UniProt P07900); type: functional, organism-based
# [11] = target: T2, Apoptotic protease-activating factor 1 (Homo sapiens, UniProt O14727); type: functional
# T2 sequence (O14727 whole entry): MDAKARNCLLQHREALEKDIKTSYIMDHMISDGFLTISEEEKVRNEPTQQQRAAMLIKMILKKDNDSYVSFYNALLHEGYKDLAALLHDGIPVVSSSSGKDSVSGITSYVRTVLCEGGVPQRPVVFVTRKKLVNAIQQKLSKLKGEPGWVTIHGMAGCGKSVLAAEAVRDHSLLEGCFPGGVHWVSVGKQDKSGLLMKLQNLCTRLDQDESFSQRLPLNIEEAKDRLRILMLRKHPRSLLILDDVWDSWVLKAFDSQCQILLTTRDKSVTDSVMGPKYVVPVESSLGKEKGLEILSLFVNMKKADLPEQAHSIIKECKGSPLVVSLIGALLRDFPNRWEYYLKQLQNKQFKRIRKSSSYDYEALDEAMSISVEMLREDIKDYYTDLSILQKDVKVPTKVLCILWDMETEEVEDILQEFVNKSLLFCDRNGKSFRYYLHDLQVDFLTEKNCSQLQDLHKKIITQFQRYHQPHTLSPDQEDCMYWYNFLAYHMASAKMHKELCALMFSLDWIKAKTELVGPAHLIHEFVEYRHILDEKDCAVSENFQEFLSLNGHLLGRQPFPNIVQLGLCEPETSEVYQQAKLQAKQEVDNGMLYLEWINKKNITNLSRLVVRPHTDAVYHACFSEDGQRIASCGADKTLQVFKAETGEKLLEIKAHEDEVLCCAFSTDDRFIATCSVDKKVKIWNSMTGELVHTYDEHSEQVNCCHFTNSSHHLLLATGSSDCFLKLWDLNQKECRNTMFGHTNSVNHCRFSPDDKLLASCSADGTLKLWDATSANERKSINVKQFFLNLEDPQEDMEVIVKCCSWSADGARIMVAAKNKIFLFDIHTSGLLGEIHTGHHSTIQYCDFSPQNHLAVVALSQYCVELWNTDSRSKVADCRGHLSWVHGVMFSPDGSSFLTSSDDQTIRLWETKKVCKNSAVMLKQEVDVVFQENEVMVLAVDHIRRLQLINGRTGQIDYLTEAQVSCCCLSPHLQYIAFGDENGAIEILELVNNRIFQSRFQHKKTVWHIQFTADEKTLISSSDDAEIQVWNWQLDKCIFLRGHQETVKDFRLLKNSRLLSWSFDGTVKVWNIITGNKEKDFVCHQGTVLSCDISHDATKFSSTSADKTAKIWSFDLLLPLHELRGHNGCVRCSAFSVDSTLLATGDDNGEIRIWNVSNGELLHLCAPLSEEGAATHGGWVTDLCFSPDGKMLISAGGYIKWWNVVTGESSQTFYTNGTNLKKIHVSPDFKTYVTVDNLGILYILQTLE
# [12] = target: T3, Small ubiquitin-related modifier 1 (Homo sapiens, UniProt P63165); experiment: inhibitors of SUMO1 peptide binding, dose response, biochemical, fluorescence polarization, uHTS hits (AID 624382); type: functional; settings: read-out: IC50_Mean
# T3 sequence (P63165 whole entry): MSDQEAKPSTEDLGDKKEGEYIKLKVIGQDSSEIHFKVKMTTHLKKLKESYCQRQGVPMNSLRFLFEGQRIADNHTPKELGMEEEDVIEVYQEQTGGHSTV
# [13] = target: T3, Small ubiquitin-related modifier 1; experiment: inhibitors of SUMO1 partner interactions, dose response, biochemical, FRET (AID 624383); type: functional; settings: read-out: IC50_Mean
# [14] = target: T4, Low molecular weight phosphotyrosine protein phosphatase (Homo sapiens, UniProt P24666); type: functional; settings: read-out: IC50_Mean
# T4 sequence (P24666 whole entry): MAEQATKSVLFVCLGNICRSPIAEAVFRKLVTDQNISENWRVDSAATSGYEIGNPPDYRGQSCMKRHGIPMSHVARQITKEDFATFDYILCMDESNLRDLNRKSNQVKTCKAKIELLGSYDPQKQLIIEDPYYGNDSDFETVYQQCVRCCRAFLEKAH
# [15] = target: T4, Low molecular weight phosphotyrosine protein phosphatase; type: functional; settings: read-out: IC50_Mean; remark: listed apart in the source
# [16] = target: Mitogen-activated protein kinase 13 (Homo sapiens, UniProt O15264); type: functional
# Sequence of Mitogen-activated protein kinase 13 (O15264 whole entry): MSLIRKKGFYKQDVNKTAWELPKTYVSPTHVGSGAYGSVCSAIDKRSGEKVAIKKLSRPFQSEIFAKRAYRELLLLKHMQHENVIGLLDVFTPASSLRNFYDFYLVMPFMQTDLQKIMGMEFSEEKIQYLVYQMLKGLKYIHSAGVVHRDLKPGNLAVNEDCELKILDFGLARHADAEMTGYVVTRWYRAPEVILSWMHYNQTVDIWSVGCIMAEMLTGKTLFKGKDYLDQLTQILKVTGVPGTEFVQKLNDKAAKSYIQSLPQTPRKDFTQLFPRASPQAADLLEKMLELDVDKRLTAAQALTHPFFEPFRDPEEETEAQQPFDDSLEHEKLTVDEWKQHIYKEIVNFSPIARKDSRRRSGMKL
# [17] = target: Tyrosine-protein phosphatase non-receptor type 11 (Homo sapiens, UniProt Q06124); experiment: SHP2 phosphatase inhibition, dose response, selectivity assay for STEP inhibitor project, biochemical (AID 602367); type: functional; settings: read-out: IC50_Mean
# Sequence of Tyrosine-protein phosphatase non-receptor type 11 (Q06124 whole entry): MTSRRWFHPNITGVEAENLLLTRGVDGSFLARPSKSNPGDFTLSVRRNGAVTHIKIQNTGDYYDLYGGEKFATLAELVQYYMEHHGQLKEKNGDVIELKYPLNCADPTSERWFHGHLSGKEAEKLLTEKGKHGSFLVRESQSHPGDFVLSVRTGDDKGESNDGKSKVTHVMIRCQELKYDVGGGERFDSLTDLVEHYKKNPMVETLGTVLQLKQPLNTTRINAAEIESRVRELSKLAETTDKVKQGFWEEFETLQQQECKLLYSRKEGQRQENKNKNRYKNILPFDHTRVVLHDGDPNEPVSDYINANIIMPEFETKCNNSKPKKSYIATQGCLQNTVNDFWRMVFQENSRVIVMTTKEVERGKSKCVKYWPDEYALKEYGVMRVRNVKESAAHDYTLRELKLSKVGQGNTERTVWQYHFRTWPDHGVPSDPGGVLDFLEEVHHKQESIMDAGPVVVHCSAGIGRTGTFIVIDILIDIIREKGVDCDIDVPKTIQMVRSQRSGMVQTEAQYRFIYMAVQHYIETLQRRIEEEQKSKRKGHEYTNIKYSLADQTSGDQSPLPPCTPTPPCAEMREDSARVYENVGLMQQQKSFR
# [18] = target: Tyrosine-protein phosphatase non-receptor type 5 (Homo sapiens, UniProt P54829); experiment: STEP phosphatase inhibitors, confirmation, biochemical, fluorescence intensity, uHTS hits (AID 602372); type: functional; settings: read-out: IC50_Mean
# Sequence of Tyrosine-protein phosphatase non-receptor type 5 (P54829 whole entry): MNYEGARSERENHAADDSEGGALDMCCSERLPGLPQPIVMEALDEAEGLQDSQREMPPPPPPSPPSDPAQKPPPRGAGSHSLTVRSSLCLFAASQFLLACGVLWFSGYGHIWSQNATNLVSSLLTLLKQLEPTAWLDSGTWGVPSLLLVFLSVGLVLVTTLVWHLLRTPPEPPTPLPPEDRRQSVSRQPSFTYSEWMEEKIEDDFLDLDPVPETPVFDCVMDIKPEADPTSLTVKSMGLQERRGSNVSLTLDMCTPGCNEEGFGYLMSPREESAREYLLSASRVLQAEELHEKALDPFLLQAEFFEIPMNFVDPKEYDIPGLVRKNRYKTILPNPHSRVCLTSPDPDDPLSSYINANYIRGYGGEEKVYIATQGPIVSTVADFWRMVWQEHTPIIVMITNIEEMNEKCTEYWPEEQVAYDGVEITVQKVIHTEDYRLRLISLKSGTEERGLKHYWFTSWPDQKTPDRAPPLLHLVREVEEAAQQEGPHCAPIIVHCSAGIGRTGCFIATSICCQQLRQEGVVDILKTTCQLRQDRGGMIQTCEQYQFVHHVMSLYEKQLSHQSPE
# [19] = target: Dual specificity protein phosphatase 3 (Homo sapiens, UniProt P51452); experiment: VHR phosphatase inhibition, dose response, selectivity assay for STEP inhibitor project, biochemical (AID 602374); type: functional; settings: read-out: IC50_Mean
# Sequence of Dual specificity protein phosphatase 3 (P51452 whole entry): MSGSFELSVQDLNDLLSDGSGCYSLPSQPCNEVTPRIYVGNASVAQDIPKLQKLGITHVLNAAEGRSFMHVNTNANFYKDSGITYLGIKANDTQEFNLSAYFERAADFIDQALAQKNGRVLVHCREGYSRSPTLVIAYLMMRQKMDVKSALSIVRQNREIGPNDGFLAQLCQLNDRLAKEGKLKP
# [20] = target: T5, Methionyl-tRNA synthetase, putative (Trypanosoma brucei brucei, UniProt Q38C91); type: functional, Trypanosoma brucei brucei strain 927/4 GUTat10.1
# T5 sequence (Q38C91 whole entry): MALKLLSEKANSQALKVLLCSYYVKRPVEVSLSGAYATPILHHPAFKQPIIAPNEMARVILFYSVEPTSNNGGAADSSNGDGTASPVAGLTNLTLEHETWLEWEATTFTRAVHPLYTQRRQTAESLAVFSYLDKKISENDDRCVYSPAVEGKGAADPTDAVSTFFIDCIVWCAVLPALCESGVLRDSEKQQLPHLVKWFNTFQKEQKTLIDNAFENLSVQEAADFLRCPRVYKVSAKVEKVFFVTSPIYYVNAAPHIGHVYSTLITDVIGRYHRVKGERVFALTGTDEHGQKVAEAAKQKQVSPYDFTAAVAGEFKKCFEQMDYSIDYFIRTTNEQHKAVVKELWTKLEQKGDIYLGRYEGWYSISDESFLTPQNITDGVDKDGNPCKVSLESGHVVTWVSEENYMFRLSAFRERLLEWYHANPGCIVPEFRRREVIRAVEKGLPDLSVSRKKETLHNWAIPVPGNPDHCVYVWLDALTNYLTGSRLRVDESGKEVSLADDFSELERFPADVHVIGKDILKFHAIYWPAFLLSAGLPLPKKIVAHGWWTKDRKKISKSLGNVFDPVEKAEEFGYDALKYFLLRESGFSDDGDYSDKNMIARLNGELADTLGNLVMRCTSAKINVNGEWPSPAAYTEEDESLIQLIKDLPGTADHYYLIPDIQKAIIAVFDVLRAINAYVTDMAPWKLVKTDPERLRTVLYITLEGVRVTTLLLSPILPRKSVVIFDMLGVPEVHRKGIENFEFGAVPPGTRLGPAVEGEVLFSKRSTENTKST
# [21] = Counterscreen for inhibitors of Trypanosoma brucei methionyl tRNA synthetase (MetRS): Luminescence-based cell-based high throughput dose response assay to identify compounds that are cytotoxic to Jurkat human T lymphocyte cells.; type: functional
# [22] = target: T5, Methionyl-tRNA synthetase, putative; type: functional, Trypanosoma brucei brucei strain 927/4 GUTat10.1; remark: listed apart in the source
# Sequence of Melanocortin receptor 4 (P32245 whole entry): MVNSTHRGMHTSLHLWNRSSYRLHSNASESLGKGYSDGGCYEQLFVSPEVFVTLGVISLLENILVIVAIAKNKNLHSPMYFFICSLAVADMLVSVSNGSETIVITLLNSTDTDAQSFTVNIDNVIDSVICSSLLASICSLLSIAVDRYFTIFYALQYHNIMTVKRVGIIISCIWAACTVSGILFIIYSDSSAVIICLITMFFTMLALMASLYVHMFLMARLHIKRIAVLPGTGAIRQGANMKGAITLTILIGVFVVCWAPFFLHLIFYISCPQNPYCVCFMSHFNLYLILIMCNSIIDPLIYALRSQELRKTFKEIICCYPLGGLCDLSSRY
smiles,measurement,setting,value
CCN(C(=O)COC(=O)CSc1ccc(C(N)=O)cc1[N+](=O)[O-])C1CCCCC1,IC50,[1],> 64.6 µM (inactive)
same,IC50,[2],> 64.6 µM (inactive)
CCN(CC)C(=O)c1ccc(S(=O)(=O)N2CCC(c3nc4ccccc4s3)CC2)cc1,AC50,[3],5.69 µM (active)
same,IC50,[4],39.7 µM (inactive)
CCCCCCCCCCCCCCCC[n+]1ccc(C(N)=O)cc1,EC50,[5],6.2 µM (active)
same,EC50,[6],6.46 µM (active)
same,IC50,[7],> 20 µM (inactive)
same,IC50,[8],25.1 µM (active)
same,IC50,[9],74.4 µM (inactive)
same,AC50,[10],8.77 µM (active)
same,IC50,[11],25.7 µM (active)
same,IC50,[12],> 66.6 µM (inactive)
same,IC50,[13],13.8 µM (active)
O=C(OCCNc1nc(-c2ccccc2)nc2ccccc12)c1ccncc1,IC50,[14],24.6 µM (inactive)
same,IC50,[15],11.8 µM (active)
NC1C2CN(c3nc4c(cc3F)c(=O)c(C(=O)O)cn4-c3ccc(F)cc3F)CC12 (configuration not stated),Ki,[16],> 7.94 µM (inactive)
Cc1ccc(S(=O)(=O)c2cnc3ccc(Cl)cc3c2O)cc1,IC50,[17],14.5 µM (active)
same,IC50,[18],39.1 µM (inactive)
same,IC50,[19],26.9 µM (inactive)
same,IC50,[20],119 µM (inactive)
same,IC50,[21],83.4 µM (inactive)
same,IC50,[22],4.9 µM (active)
